Test results reported in paper PMC10178127, “Immunomodulatory Effects of the Pea Defensin Psd1 in the Caco-2/Immune Cells Co-Culture upon Candida albicans Infection” (International Journal of Molecular Sciences, 2023).

System: Caco-2/moDCs co-culture
Assay: Multiplex xMAP cytokine production, Caco-2/dendritic cells co-culture
Assay type: cell-based, human
Details: 24 h
From the text: The co-culture model consisted of immune cells (moDCs or monocytes) lying on the bottom of the culture well, and a Caco-2 polarized monolayer, mimicking intestinal epithelium, on a permeable insert. Immune cells were located on the serosal side of the epithelial barrier. In some inserts Candida albicans was loaded to the apical side of the epithelium, mimicking intestinal lumen colonization with this pathogenic fungus. This co-culture model allows yeast cells to contact only with the apical side of epithelial cells, but not with immune cells. Culture medium, containing cytokines, chemokines, and growth factors, produced by both epithelial and immune cells, was taken from basolateral chambers and analyzed by multiplex xMAP technology after incubation during 24 h when C. albicans cells switched to hyphal form.
For growing cells, mimicking epithelial barriers in vitro, Caco-2 cells were seeded onto 24-well polycarbonate Millicell cell culture inserts (0.4 μm, 0.6 cm^2 surface area) (Millipore, Burlington, MA, USA), precoated with 0.2% bovine gelatin (Sigma-Aldrich), at a density of 2.5 × 10^5 cells/cm^2. The cells were grown for 21 days in a complete DMEM/F12 (1:1) medium with re-feeding every 2–3 days with a fresh complete medium. The integrity of the Caco-2 cell monolayer was checked by measuring the transepithelial electrical resistance (TEER) using a Millicell-ERS Voltohmmeter (Millipore). Only cell monolayers with TEER > 400 Ωcm^2 (after subtracting TEER in blank inserts without Caco-2 cells) were used in transport across epithelial monolayer and cytokine production experiments.
Monocytes and moDCs were seeded into the wells of 48- and 24-well plates in the complete RPMI-1640 medium supplemented with 10% human AB serum (HABS, Capricorn Scientific) without antibiotics 24 h prior to the experiment, and kept in a humidified CO2-incubator (5% CO2, 37 °C). After 24 h, the medium in the wells of the 48-well plate was replaced by fresh complete RPMI-1640 medium with 10% HABS, supplemented with 2 µM of Psd1 for the sample wells or fresh medium alone for the control wells. Medium in the wells of the 24-well plate was replaced by fresh complete RPMI-1640 medium with 10% human serum without antibiotics. Then, Millicell inserts with Caco-2 monolayers with TEER > 400 Ωcm^2 were placed into the wells of the 24-well plate, containing monocytes or moDCs. Wells with Millicell inserts with Caco-2 monolayers without immune cells were used as control wells. Medium in apical chambers of Millicell inserts was replaced by fresh complete RPMI-1640 with 10% human serum medium containing Psd1 at the final concentration of 2 µM or Candida albicans at the concentration of 5 × 10^4 cells/mL or yeast cells together with the pea defensin at the same concentration. Fresh complete RPMI-1640 medium only with 10% human serum and without antibiotics was used in control wells. Plates were kept in CO2-incubator (5% CO2, 37 °C) for another 24 h. Culture supernatants from the wells of the 48-well plate and basolateral chambers of the 24-well plate were collected and stored at −70 °C degrees less than one month prior to the analytes assessment. […]

[1] = Caco-2/moDCs+Candida+Psd1, 2 µM apical, basolateral medium

Psd1: pea defensin from Pisum sativum (UNIPROT P81929), recombinant peptide overexpressed in Escherichia coli (KTCEHLADTYRGVCFTNASCDDHCKNKAHLISGTCHNWKCFCTQNC; UniProt P81929 1-46, looked up)
production of TNFα, IL-6, IL-8/CXCL8, IL-12, IL-27, G-CSF, GM-CSF, and MIPs induced by C. albicans (Caco-2/dendritic cells co-culture with C. albicans, 2 μM): inhibited the production | EGF level [1]: 4.72 pg/mL | Eotaxin level [1]: <3.52↓ pg/ml | FGF-2 level [1]: 37.17 pg/mL | FLT-3L level [1]: 0.57 pg/mL | Fractalkine level [1]: <17.82↓ pg/ml | G-CSF level [1]: 3.15 pg/mL | GM-CSF level [1]: 1.96 pg/mL | GROa level [1]: 23.25 pg/mL | IFNa2 level [1]: 7.95 pg/mL | IFNg level [1]: <2.23↓ pg/ml | IL-1RA level [1]: 160.3 pg/mL | IL-1a level [1]: 3.72 pg/mL | IL-1b level [1]: <2.26↓ pg/ml | IL-2 level [1]: 1.49 pg/mL | IL-3 level [1]: <0.60↓ pg/ml | IL-4 level [1]: <1.14↓ pg/ml | IL-5 level [1]: 2.95 pg/mL | IL-6 level [1]: 1.46 pg/mL | IL-7 level [1]: <0.38↓ pg/ml | IL-8 level [1]: 107.27 pg/mL | IL-9 level [1]: 4.69 pg/mL | IL-10 level [1]: 17.03 pg/mL | IL-12 (p40) level [1]: 52.85 pg/mL | IL-12 (p70) level [1]: <1.68↓ pg/ml | IL-13 level [1]: 11.06 pg/mL | IL-15 level [1]: 8.46 pg/mL | IL-17A level [1]: <2.09↓ pg/ml | IL-17E/IL-25 level [1]: <18.85↓ pg/ml | IL-17F level [1]: <19.03↓ pg/ml | IL-18 level [1]: 4.94 pg/mL | IL-22 level [1]: <5.23↓ pg/ml | IL-27 level [1]: 49.72 pg/mL | IP-10 level [1]: 334.16 pg/mL | M-GSF level [1]: 123.66 pg/mL | MCP-1 level [1]: 307.65 pg/mL | MCP-3 level [1]: 19.67 pg/mL | MDC level [1]: 2630 pg/mL | MIG level [1]: 38259 pg/mL | MIP-1a level [1]: 16.22 pg/mL | MIP-1b level [1]: 78.16 pg/mL | PDGF-AA level [1]: 256.1 pg/mL | PDGF-AB/BB level [1]: 97.16 pg/mL | RANTES level [1]: <0.62↓ pg/ml | TGF-a level [1]: 35.55 pg/mL | TNFa level [1]: 18.93 pg/mL | TNFb level [1]: 0.97 pg/mL | VEGFa level [1]: 75.3 pg/mL | sCD40L level [1]: 84.71 pg/mL
